In patent publication US11071720B2, “Cancer therapy” (UCL Business Ltd, priority 2016, dated 2021):

Experiments:
[1] = target: T1, MLL-AF6 (Homo sapiens, UniProt P55196+Q03164); experiment: Western blot analysis of MLL-fusion protein proteolysis in MLL-AF6 positive cell line SHI-I; type: cell-based; conditions: SHI-I cells
T1 construct: AF6 (AFDN, P55196) portion as fusion partner; host or cells: SHI-I (SHI-1) human leukaemic cell line
Procedure: (§1) Human leukaemic cell lines (DSMZ) were cultured in Roswell Park Memorial Institute (RPMI) medium (Invitrogen), supplemented with 10% heat-inactivated FCS, 100 U/ml Penicillin (Invitrogen), 100 μg/ml Streptomycin (Invitrogen) and 2 mM L-glutamine (Invitrogen) (complete RPMI), or in Iscove's Modified Dulbecco's Medium (IMDM) (Invitrogen) supplemented with 20% heat-inactivated FCS, 100 U/ml Penicillin (Invitrogen), 100 μg/ml Streptomycin (Invitrogen) and 2 mM L-glutamine (Invitrogen)(complete IMDM).
(§2) SHI-I (MLL-AF6), THP-I (MLL-AF9) and MV4-11 (MLL-AF4) cell lines were treated with 300 nM of Disulfiram (Aldrich) or concentrations indicated and 1 μM of Copper chloride (Acros Organics) unless indicated otherwise for 16 hours.
(§3) Cells were lysed in Sample Reducing Buffer (200 mM DTT, 2% sodium dodecyl sulphate (SDS), 10% v/v Glycerol, 0.02% v/v Bromophenol Blue, 125 mM Tris HCl pH 6.8). The lysates were incubated for 5 minutes at 100° C., vortexed for 10 seconds and centrifuged at 13,200 rpm for 10 minutes at 4° C. The total cell lysate was then collected and stored at −20° C. or loaded immediately onto a polyacrylamide gel.
The whole cell lysate was electrophoresed in 7% Bis-Tris polyacrylamide gel and transferred to a odyssey nitrocellulose membrane (LI-COR).
After blocked for 1 hr for non-specific binding in PBS-T with 5% of non-fat milk, blots were incubated with primary antibodies (MLL, mouse monoclonal 1:2000, Millipore; Vinculin, rabbit monoclonal 1:10000, Abcam) overnight at 4° C., followed by secondary IRDye conjugated antibodies (mouse IEDye800CW 1:10000; rabbit IRDye680RD 1:10000, LI-COR) at room temperature.
Blots were visualized using the Odyssey CLx.
SHI-I (MLL-AF6), and THP-I (MLL-AF9) cell lines were treated with 300 nM of Diethyldithiocarbamate (Aldrich) and 1 μM of Copper chloride (Acros Organics) unless indicated otherwise for 16 hours.
SHI-I (MLL-AF6) cell line was treated with 100 nM or 75 nm of Disulfiram (Aldrich) and 100 nM of Auranofin or 10 μM of Curcumin supplemented with 1 μM of Copper chloride (Acros Organics) for 16 hours.

[2] = target: T2, MLL-AF9 (Homo sapiens, UniProt P42568+Q03164); experiment: Western blot analysis of MLL-fusion protein proteolysis in MLL-AF9 cells (V6MA.3, THP-1); type: cell-based
T2 construct: AF9 (MLLT3, P42568) portion as fusion partner; host or cells: THP-1 (endogenous fusion); V6MA.3 (MLL-AF9 immortalised cord blood)
T2 sequence (Q03164 1147-1203 limits assumed, one chain of several): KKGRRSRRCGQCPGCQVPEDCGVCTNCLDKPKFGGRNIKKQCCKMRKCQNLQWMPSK
Procedure: as §1, §2, §3
The whole cell lysate was electrophoresed in 7% Bis-Tris polyacrylamide gel and transferred to a odyssey nitrocellulose membrane (LI-COR). […]

[3] = system: MLL fusion proteins; experiment: Western blot, proteolysis of MLL fusion proteins (effect of copper; primary patient sample); type: cell-based, human
[4] = system: H3K4me3; experiment: Western blot analysis of H3K4me3 in MLL rearranged cell lines; type: cell-based, human; conditions: various MLL rearranged cell lines, 16 hrs in the presence of copper
[5] = system: MLL rearranged cells; experiment: Methylcellulose colony formation assay; type: cell-based, human; conditions: 300 nM disulfiram; MLL rearranged cells vs other leukemic cell lines and CD34+ cord blood
Procedure: FIGS. 6A and 6B show, as explained in Example 1: in FIG. 6A, relative CFU corresponding to colony formation in MLL rearranged cells, other leukemic cell lines and CD34+ cord blood, in a methylcellulose colony formation assay after treatment of the cells with 300 nM disulfiram (equal numbers of cells were plated and normalised CFU frequency is shown, with error bars representing standard deviation); and, in FIG. 6B, the corresponding treated and control plates themselves.

[6] = system: HOXA9/HOXA10 and MEIS1; experiment: RT-qPCR analysis of MLL target gene expression in SHI-I cells; type: cell-based, human; conditions: 16 hrs of treatment
Procedure: as §2

[7] = system: MLL-AF9 and MLL-AF4 profiles; experiment: Gene Set Enrichment Analysis of treated SHI-I cells; type: cell-based, human; conditions: 16 hrs in the presence of copper
Procedure: as §2

[8] = 16 hrs treatment in the presence of copper

T1 sequence (Q03164 1146-1214 limits assumed, one chain of several): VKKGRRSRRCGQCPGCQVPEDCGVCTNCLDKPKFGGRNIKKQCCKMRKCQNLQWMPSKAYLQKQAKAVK

SMILES	proteolysis of the MLL-fusion protein (Western blot) [1, 8]	proteolysis of the MLL-fusion protein (Western blot) ([2]; MLL-AF9 positive cell line THP-1, 16 hrs treatment in the presence of copper)	proteolysis of the MLL-fusion protein (Western blot) [3]	H3K4me3 level (Western blot) [4]	proteolysis of the MLL-fusion protein (Western blot) ([1]; 16 hrs, in the presence of copper, with or without thioredoxin reductase inhibitors Auranofin and Curcumin)	relative CFU corresponding to colony formation [5]	MLL target gene expression level of HOXA9/HOXA10 and MEIS1, normalised to 18S (RT-qPCR) [6]	Gene Set Enrichment Analysis versus published MLL-AF9 and MLL-AF4 profiles [7]	proteolysis of the MLL-fusion protein (Western blot) ([2]; MLL-AF9 immortalised cord blood V6MA.3, 16 hrs treatment in the presence of copper)
CCN(CC)C(=S)S [diethyldithiocarbamate, Diethyldithiocarbamic acid]	showing proteolysis of the MLL-fusion protein	showing proteolysis of the MLL-fusion protein	–	–	–	–	–	–	–
CCN(CC)C(=S)SSC(=S)N(CC)CC [disulfiram]	showing proteolysis of the MLL-fusion protein	–	showing proteolysis of the MLL-fusion protein in a primary patient sample	showing a decrease in H3K4me3	showing proteolysis of the MLL-fusion protein	substantially higher effect than in other (non-MLL) leukemic cell lines and CD34+ cord blood	efficient down-regulation of the target genes	negative enrichment to both published MLL-AF9 and MLL-AF4 profiles	showing proteolysis of the MLL-fusion protein
